Assay: complex formation with iron ions in sun protection formulation, colour measurement (Minolta Chroma-Meter CR 300)
Details: formulation + 0.01% iron (III) chloride hexahydrate + 0.09% additive, after 6 weeks
Description: As a base formulation, the formulation of a sun protection agent with butyl methoxy dibenzoylmethane was used. This UVA filter forms an intensive red complex with traces of irons The complexing effect was studied using the following formulation:
The aqueous phase of the formulation was prepared by dissolving Phase B in Phase A until a homogeneous phase resulted. This was brought to a temperature of ca. 75-80° C. Phase C was prepared by dissolving Cosmedia Gel CC in the rest of Phase C until a homogeneous phase resulted. This was heated to ca. 75-80° C., followed by addition of phase D, and then Phase E was stirred in. The mixture of phases C, D, and E was added to the aqueous phase, and this mixture was stirred 5 min at 750 rpm. Then the formulation was cooled to room temperature while stirring at 200 rpm, during which at ca. 60° C. the mixture was homogenised 1 min at 11000 rpm with the aid of an Ultra Turrax stirrer.
The following additives were added to the described formulation:
The respective amount of iron (III) chloride hexahydrate, Carephos N (linear alkali polyphosphate), disodium EDTA, Utanit AF (acid diphosphate, for comparison), and [sic] Phoskadent Pyro (alkali diphosphate, for comparison) was worked into the aqueous phase and was removed from the water content [sic].
The evaluation was carried out by colour measurement. Using a Minolta Chroma-Meter CR 300, the colour status of the formulas was determined after 6 weeks. The measurements yielded values which allowed an objective comparison of the individual formulations. The measurements determined 3 values: L, a, and b. The L value describes lightness and darkness, with 0 representing perfect black and 100 perfect white. The a value describes the red-green value, and the b value describes the yellow-blue value. There are different prefix signs on the a and b values, in accordance with the present CIE Lab system, according to which no colour can be simultaneously reddish and greenish or simultaneously yellowish and bluish. Thus, −a represents green, +a represents red, −b represents blue, and +b represents yellow. […]

SMILES: O=C([O-])CN(CCN(CC(=O)[O-])CC(=O)O)CC(=O)O.[Na+].[Na+] [Disodium EDTA]
- L value (difference to white standard): −26.44
- a value (red-green; difference to white standard): +5.18
- b value (yellow-blue; difference to white standard): +4.10

Source: US20130189203A1, “COSMETIC ADDITIVES CONTAINING ALKALI PHOSPHATES” (BK Giulini GmbH, priority 2012, published 2013)
